Test results published in ChEMBL document CHEMBL4219115, “Synthesis and evaluation of 4',5'-dihydrospiro[piperidine-4,7'-thieno[2,3-c]pyran] analogues against both active and dormant Mycobacterium tuberculosis” (Bioorg Med Chem, 2018).
Converted amounts (≈) assume the structure as drawn.

Legend:
[1] = system: Mycobacterium tuberculosis; test: Antimycobacterial activity against Mycobacterium tuberculosis H37Rv measured after 6 days by resazurin assay; assay type: functional; details: 144 h
[2] = system: Mycobacterium tuberculosis; test: Antimycobacterial activity against active form of Mycobacterium tuberculosis H37Rv measured after 7 days by alamar blue assay; assay type: functional; details: 168 h
RAW264.7 = test: Cytotoxicity against mouse RAW264.7 cells assessed as reduction in cell viability at 50 ug/ml after 48 hrs by MTT assay; assay type: cell-based; details: raw264.7, 48 h
[3] = biological target: T1, L-lysine-epsilon aminotransferase (Mycobacterium tuberculosis, UniProt P9WQ77); test: Inhibition of Mycobacterium tuberculosis LAT using L-lysine and alpha-ketoglutaric acid as substrate by spectrophotometric analysis
T1 sequence (P9WQ77 whole entry): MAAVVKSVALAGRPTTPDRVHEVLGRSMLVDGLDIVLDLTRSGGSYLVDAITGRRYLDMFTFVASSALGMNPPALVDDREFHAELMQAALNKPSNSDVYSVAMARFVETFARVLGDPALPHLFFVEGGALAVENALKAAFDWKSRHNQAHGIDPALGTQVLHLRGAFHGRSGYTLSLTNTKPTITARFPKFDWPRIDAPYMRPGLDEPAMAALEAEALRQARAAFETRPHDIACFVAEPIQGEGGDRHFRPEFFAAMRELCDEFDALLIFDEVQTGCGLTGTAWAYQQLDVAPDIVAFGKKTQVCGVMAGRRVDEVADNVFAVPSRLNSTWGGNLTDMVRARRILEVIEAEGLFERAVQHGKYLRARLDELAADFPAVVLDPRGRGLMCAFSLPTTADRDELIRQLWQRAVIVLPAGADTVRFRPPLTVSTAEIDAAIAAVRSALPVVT

[4] = system: Mycobacterium tuberculosis; test: Antimycobacterial activity against nutrient starved dormant form of Mycobacterium tuberculosis H37Rv assessed as log reduction in bacterial count at 10 ug/ml measured after 7 days by […] relative to control; assay type: functional

SMILES	MIC [2]	Activity (RAW264.7)	also measured
c1cc2c(s1)CCOC21CCN(Cc2ccc3c(c2)OCCO3)CC1	–	–	MIC [1]: 0.38 µM (≈ 0.136 µg/mL)
c1ccc(CN2CCC3(CC2)OCCc2ccsc23)cc1	83.5 µM (≈ 25 µg/mL)	–	–
O=C(c1ccccc1)N1CCC2(CC1)OCCc1ccsc12	79.8 µM (≈ 25 µg/mL)	–	–
COc1ccc(S(=O)(=O)N2CCC3(CC2)OCCc2ccsc23)cc1	8.23 µM (≈ 3.12 µg/mL)	12.32%	IC50 [3]: 1.04 µM; log(activity) [4]: 2.8
Clc1ccc(CN2CCC3(CC2)OCCc2ccsc23)c(Cl)c1	33.9 µM (≈ 12.5 µg/mL)	–	–
Cc1ccc(S(=O)(=O)N2CCC3(CC2)OCCc2ccsc23)cc1	8.59 µM (≈ 3.12 µg/mL)	22.16%	–
Fc1ccc(CN2CCC3(CC2)OCCc2ccsc23)c(F)c1	37.3 µM (≈ 12.5 µg/mL)	–	–
O=S(=O)(c1ccc(Cl)cc1Cl)N1CCC2(CC1)OCCc1ccsc12	29.9 µM (≈ 12.5 µg/mL)	–	–
O=S(=O)(c1ccc(F)cc1)N1CCC2(CC1)OCCc1ccsc12	34 µM (≈ 12.5 µg/mL)	–	–
COc1ccc(C(=O)N2CCC3(CC2)OCCc2ccsc23)cc1	9.09 µM (≈ 3.12 µg/mL)	14.59%	–
Cc1ccc(C(=O)N2CCC3(CC2)OCCc2ccsc23)cc1	19.1 µM (≈ 6.25 µg/mL)	23.16%	–
O=C(c1ccc(F)cc1)N1CCC2(CC1)OCCc1ccsc12	18.9 µM (≈ 6.25 µg/mL)	18.98%	–
O=S(=O)(c1ccc(Cl)cc1)N1CCC2(CC1)OCCc1ccsc12	65.1 µM (≈ 25 µg/mL)	–	–
Cc1ccc(CN2CCC3(CC2)OCCc2ccsc23)cc1	79.8 µM (≈ 25 µg/mL)	–	–
Clc1ccc(CN2CCC3(CC2)OCCc2ccsc23)cc1	9.35 µM (≈ 3.12 µg/mL)	26.54%	IC50 [3]: 6.83 µM; log(activity) [4]: 2.4
Fc1ccc(CN2CCC3(CC2)OCCc2ccsc23)cc1	19.7 µM (≈ 6.25 µg/mL)	21.67%	–
O=C(c1ccc(F)cc1F)N1CCC2(CC1)OCCc1ccsc12	8.94 µM (≈ 3.12 µg/mL)	34.06%	IC50 [3]: 3.48 µM; log(activity) [4]: 2.7
COc1ccc(CN2CCC3(CC2)OCCc2ccsc23)cc1	23.1 µM (≈ 7.62 µg/mL)	–	–
O=S(=O)(c1ccccc1)N1CCC2(CC1)OCCc1ccsc12	71.5 µM (≈ 25 µg/mL)	–	–
O=C(c1ccc(Cl)cc1)N1CCC2(CC1)OCCc1ccsc12	71.9 µM (≈ 25 µg/mL)	–	–
O=S(=O)(c1ccc(F)cc1F)N1CCC2(CC1)OCCc1ccsc12	16.2 µM (≈ 6.25 µg/mL)	31.08%	–
O=C(c1ccc(Cl)cc1Cl)N1CCC2(CC1)OCCc1ccsc12	32.7 µM (≈ 12.5 µg/mL)	–	–
CC[C@@H](CO)NCCN[C@@H](CC)CO [ETHAMBUTOL]	9.84 µM (≈ 2.01 µg/mL)	–	–
NNC(=O)c1ccncc1 [ISONIAZID]	0.66 µM (≈ 0.0905 µg/mL)	–	log(activity) [4]: 1.7
CC1COc2c(N3CCN(C)CC3)c(F)cc3c(=O)c(C(=O)O)cn1c23 (configuration not stated) [OFLOXACIN]	2.16 µM (≈ 0.781 µg/mL)	–	–
CO[C@H]1/C=C/O[C@@]2(C)Oc3c(C)c(O)c4c(O)c(c(/C=N/N5CCN(C)CC5)c(O)c4c3C2=O)NC(=O)/C(C)=C\C=C\[C@H](C)[C@H](O)[C@@H](C)[C@@H](O)[C@@H](C)[C@H](OC(C)=O)[C@@H]1C [RIFAMPIN]	–	–	log(activity) [4]: 2
